Results: article PMC7660689, “Catechol-Type Flavonoids from the Branches of Elaeagnus glabra f. oxyphylla Exert Antioxidant Activity and an Inhibitory Effect on Amyloid-β Aggregation” (Molecules, 2020)

Experiments:
[1] = molecular target: T1, Aβ1–42 peptides (Homo sapiens, UniProt P05067); assay: Thioflavin T (ThT) Aβ aggregation assay; type: biochemical; conditions: for Inhibition of Aβ aggregation compared with positive control morin: compounds at 100 μM, morin 100 μM; for IC50: isolated compounds, 6.25-100 µM, ThT fluorescence, read-out: Inhibition of Aβ aggregation IC50
T1 construct: purchased AnaSpec
T1 sequence (P05067 672-713 limits assumed): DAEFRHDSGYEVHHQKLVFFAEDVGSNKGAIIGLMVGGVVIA
Method: To measure the inhibitory effect on Aβ1–42 aggregation, the SensoLyte® Thioflavin T (ThT) β-Amyloid aggregation kit (AnaSpec, Fremont, CA, USA) was used according to the modified manufacturer’s instructions. This assay is based on the property of ThT dye that increases fluorescence when bound to the aggregates of Aβ1–42 peptides. The detailed protocol is described in a previous report. Morin (100 μM) was used as a positive control for the inhibition of Aβ aggregation. Experiments were performed in triplicate and independently repeated three times. The inhibition rate (%) of Aβ aggregation was calculated according to the following equation:(1) Inhibition of Aβ aggregation %=1−Fluorescence of Aβ−treated sample/Fluorescence of untreated sample×100

[2] = ABTS radical scavenging assay; conditions: for Concentration at which ABTS radical scavenging activity reached 100% / IC50: isolated compounds; for IC50: 1.5625-100 µM; for ABTS radical scavenging activity: compounds at 100 μM
Method: ABTS and DPPH radical scavenging assays were performed with reference to the modified method described in previously published reports to examine the antioxidant activities. […] Subsequently, the reactant was diluted 25-fold to adjust its absorbance at 734 nm to 0.7 by using a spectrophotometer (Benchmark Plus, Bio-Rad, Hercules, CA). […] The absorbance was measured at 517 nm. Ascorbic acid was used as a positive control for antioxidative activity.

[3] = DPPH radical scavenging assay; conditions: for DPPH radical scavenging activity: concentrations from 1.5625 to 100 µM; for IC50: isolated compounds, 1.5625-100 µM
Method: ABTS and DPPH radical scavenging assays were performed with reference to the modified method described in previously published reports to examine the antioxidant activities. In the ABTS assay, 7 mM ABTS aqueous solution and 2.45 mM potassium persulfate were reacted for 12–16 h in the dark at room temperature to prepare the ABTS^•+ solution. Subsequently, the reactant was diluted 25-fold to adjust its absorbance at 734 nm to 0.7 by using a spectrophotometer (Benchmark Plus, Bio-Rad, Hercules, CA). The sample solution (100 μL) and ABTS^•+ solution (100 μL) were mixed and incubated for 5 min at room temperature in the dark.
To determine the DPPH radical scavenging activity, the sample solution (100 μL) and 0.15 mM DPPH solution (100 μL) were mixed and incubated for 3 h at room temperature in the dark. The absorbance was measured at 517 nm. Ascorbic acid was used as a positive control for antioxidative activity. The radical scavenging activity (%) was calculated using the following equation:(2) Radical scavenging activity %=1−Absorbance of sample/Absorbance of control × 100

Inhibition of Aβ aggregation compared with positive control morin [1] | IC50 [1] | IC50 [2] | IC50 [3] | Compound | Concentration at which ABTS radical scavenging activity reached 100% [2] | DPPH radical scavenging activity [3] | ABTS radical scavenging activity [2] | melting point
comparably to morin | 32.6 µM | 3.44 µM | > 100 µM | Oc1cc(O)c2c(c1)O[C@H](c1ccc(O)c(O)c1)[C@@H](O)[C@@H]2c1c(O)cc(O)c2c1O[C@H](c1ccc(O)c(O)c1)[C@H](O)C2 [Compound 9, procyanidin B4] | 12.5 µM | < 52% |  | 
comparably to morin | 14.6 µM | 3.21 µM | 54.9 µM | Oc1cc(O)c2c(c1)O[C@H](c1ccc(O)c(O)c1)[C@@H](O)[C@@H]2c1c(O)cc(O)c2c1O[C@H](c1ccc(O)c(O)c1)[C@@H](O)C2 [Compound 8, procyanidin B3] | 12.5 µM | < 52% |  | 
 |  |  |  | O=C(O)c1ccccc1O [Compound 2, salicylic acid] |  |  | < 66% | 
 |  |  |  | C[C@@H]1CC[C@]2(C(=O)O)CC[C@]3(C)C(=CCC4[C@@]5(C)CC[C@H](OC(=O)/C=C/c6ccc(O)c(O)c6)C(C)(C)C5CC[C@]43C)C2[C@H]1C (stereo partly drawn) [Compound 15, ursolic acid-3-O-trans-caffeate] |  |  | < 66% | > 300 °C
 |  |  |  | O=C(O)c1ccc(O)cc1 [Compound 1, 4-hydroxybenzoic acid] |  |  | < 66% | 
 |  |  |  | C=C(C)[C@@H]1CC[C@]2(C(=O)O)CC[C@]3(C)C(CCC4[C@@]5(C)CC[C@H](OC(=O)/C=C/c6ccc(O)c(O)c6)C(C)(C)C5CC[C@]43C)C12 (stereo partly drawn) [Compound 14, betulinic acid-3-O-trans-caffeate] |  |  | < 66% | 270 °C
comparably to morin | 44.5 µM | 4.61 µM | > 100 µM | O=C(C=Cc1ccc(O)cc1)OCC1OC(Oc2c(-c3ccc(O)c(O)c3)oc3cc(O)cc(O)c3c2=O)C(O)C(O)C1O (stereo not drawn) [Compound 13, helichrysoside] | 25 µM | < 52% |  | 
